SMILES strings stand for the structures.

One may read the inhibition as how much of the control response was suppressed. What is called Ki is a measure of affinity in units of concentration, obtained from inhibition or displacement.

T1 sequence (Q9Y5N1 with tags, fused parts or gaps): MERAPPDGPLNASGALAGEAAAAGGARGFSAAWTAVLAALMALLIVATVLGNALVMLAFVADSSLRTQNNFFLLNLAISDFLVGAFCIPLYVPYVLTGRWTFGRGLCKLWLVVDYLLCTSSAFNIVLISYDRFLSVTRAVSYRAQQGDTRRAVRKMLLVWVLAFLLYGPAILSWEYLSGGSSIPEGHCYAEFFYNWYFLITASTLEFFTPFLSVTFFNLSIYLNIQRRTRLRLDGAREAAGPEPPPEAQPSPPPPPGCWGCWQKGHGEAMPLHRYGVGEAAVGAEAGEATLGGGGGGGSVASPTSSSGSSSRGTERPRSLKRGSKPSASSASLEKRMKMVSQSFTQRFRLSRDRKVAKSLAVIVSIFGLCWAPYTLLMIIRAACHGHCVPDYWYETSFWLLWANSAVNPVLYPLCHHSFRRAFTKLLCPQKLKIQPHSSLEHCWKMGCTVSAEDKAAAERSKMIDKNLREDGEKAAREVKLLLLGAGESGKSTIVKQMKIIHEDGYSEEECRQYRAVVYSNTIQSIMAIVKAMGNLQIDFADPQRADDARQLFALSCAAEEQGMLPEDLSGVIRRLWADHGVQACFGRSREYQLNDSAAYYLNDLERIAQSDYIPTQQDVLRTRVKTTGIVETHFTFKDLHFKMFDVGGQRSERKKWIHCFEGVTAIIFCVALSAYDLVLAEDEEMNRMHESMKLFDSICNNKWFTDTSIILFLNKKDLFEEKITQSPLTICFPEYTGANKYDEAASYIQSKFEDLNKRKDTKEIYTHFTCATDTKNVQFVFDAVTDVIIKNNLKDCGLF

One test concerns the target T1, chimeric human H3 receptor (Homo sapiens, UniProt Q9Y5N1).
T1 construct: made in house; host or cells: Sf9 insect cells (baculovirus); P2 membrane preparation
The test is described as follows: Chimeric human H3 receptor screening GTP binding assay (inhibition of histamine-stimulated GTP-gamma35S binding, Example 8). It is filed as biochemical. The conditions noted are these: 4 μM of the compound, 1 μM histamine, "†" in Ki of Table II, read-out: percent inhibition of the signal obtained with 1 μM histamine. As for the experimental part:
This Example illustrates a representative screening assay for evaluating inhibition of histamine-stimulated GTP-gamma^35S binding. Such GTP binding activity can be used to identify H3 antagonists and inverse agonists. A compound analyzed in this assay is referred to herein as a “test compound,” and the initial identification of antagonists and inverse agonists is performed using a test compound concentration of 4 μM.
Four independent baculoviral stocks (one directing the expression of the chimeric human H3 receptor and three directing the expression of each of the three subunits of a heterotrimeric G-protein) are used to infect a culture of Sf9 cells as described above. P2 membranes are prepared as described above, and are resuspended by Dounce homogenization (tight pestle) in GTP binding assay buffer (50 mM Tris pH 7.4, 120 mM NaCl, 5 mM MgCl2, 2 mM EGTA, 1 mg/ml BSA, 0.2 mg/ml bacitracin, 0.02 mg/ml aprotinin, 0.01 mg/ml saponin, 10 μM GDP) and added to assay tubes at a concentration of 35 μg protein/reaction tube. Non-radiolabeled test compounds are added to separate reactions at a concentration of 4 μM along with 1 μM histamine (agonist). Reactions are initiated by the addition of […] GTP-gamma^35S with a final assay volume of 0.20 ml.
After a 60-min incubation at room temperature, reactions are terminated by vacuum filtration over GF/C filters (pre-soaked in 50 mM Tris pH 7.4, 120 mM NaCl plus 0.1% BSA) followed by washing with ice-cold buffer (50 mM Tris pH 7.4, 120 mM NaCl). The amount of receptor-bound (and thereby membrane-bound) GTP-gamma^35S is determined by measuring the bound radioactivity, preferably by liquid scintillation spectrometry of the washed filters. Non-specific binding is determined using 10 uM GTP-gammaS and typically represents less than 5 percent of total binding. After subtraction of non-specific binding, data is expressed as percent inhibition of 1 μM histamine signal.
Neutral antagonists are those test compounds that reduce the histamine-stimulated GTP binding activity towards, but not below, baseline levels. In contrast, in the absence of added histamine, inverse agonists reduce the GTP binding activity of the receptor-containing membranes below baseline. Any test compound that elevates GTP binding activity above baseline in the absence of added histamine in this assay is defined as having agonist activity.
Background: GTPγS is a poorly hydrolysed GTP analogue; its binding reports G protein activation.
On to `CCCCc1ccc(-c2ccc3c(c2)CCN(CC(=O)N2CCN(C4CCCCC4)CC2)C3)cc1` [Compound 453, 6-(4-butylphenyl)-2-[2-(4-cyclohexylpiperazin-1-yl)-2-oxoethyl]-1,2,3,4-tetrahydroisoquinoline], for which the inhibition at 4 µM was ≥ 90%.

With `Cc1ccc(F)c(-c2ccc3c(c2)CCN(CC(=O)N2CCN(C4CCC4)CC2)C3)c1` [Compound 423, 2-[2-(4-cyclobutylpiperazin-1-yl)-2-oxoethyl]-6-(2-fluoro-5-methylphenyl)-1,2,3,4-tetrahydroisoquinoline], the inhibition at 4 µM is ≥ 90%.

For the compound `Cc1ccc(F)c(-c2ccc3c(c2)CCN(CC(=O)N2CCN(C4CCCC4)CC2)C3)c1` [Compound 424, 2-[2-(4-cyclopentylpiperazin-1-yl)-2-oxoethyl]-6-(2-fluoro-5-methylphenyl)-1,2,3,4-tetrahydroisoquinoline], the inhibition at 4 µM was ≥ 90%.

`CCc1cccc(-c2ccc3c(c2)CCN(CC(=O)N2CCN(C4CCC4)CC2)C3)c1` [Compound 467, 2-[2-(4-cyclobutylpiperazin-1-yl)-2-oxoethyl]-6-(3-ethylphenyl)-1,2,3,4-tetrahydroisoquinoline]: the inhibition at 4 µM is ≥ 90%.

For the compound `Cc1ccc(-c2ccc3c(c2)CCN(CC(=O)N2CCN(C4CCC4)CC2)C3)cc1` [Compound 435, 2-[2-(4-cyclobutylpiperazin-1-yl)-2-oxoethyl]-6-(4-methylphenyl)-1,2,3,4-tetrahydroisoquinoline], the inhibition at 4 µM is ≥ 90%.

Turning to `O=C(CN1CCc2cc(-c3ccccc3)ccc2C1)N1CCN(C2CCCCC2)CC1` [Compound 400, 2-[2-(4-cyclohexylpiperazin-1-yl)-2-oxoethyl]-6-phenyl-1,2,3,4-tetrahydroisoquinoline], the inhibition at 4 µM was ≥ 90%.

Consider `Cc1ccc(-c2ccc3c(c2)CCN(CC(=O)N2CCN(C(C)C)CC2)C3)cc1` [Compound 438, 2-[2-(4-isopropylpiperazin-1-yl)-2-oxoethyl]-6-(4-methylphenyl)-1,2,3,4-tetrahydroisoquinoline], for which the inhibition at 4 µM is ≥ 90%.

The same test, now with this note: Table II "Ki", symbol †, 4 μM of the compound, 1 μM histamine, read-out: percent inhibition of the signal obtained with 1 μM histamine.
For the compound `COc1ccc(-c2ccc(-c3ccc4c(c3)CCN(CC(=O)N3CCN(C5CCCCC5)CC3)C4)cc2)cc1` [Compound 500, 2-[2-(4-cyclohexylpiperazin-1-yl)-2-oxoethyl]-6-(4′-methoxybiphenyl-4-yl)-1,2,3,4-tetrahydroisoquinoline], the inhibition at 4 µM is ≥ 90%.

For `COc1ccc(-c2ccc3c(c2)CCN(CC(=O)N2CCN(C(C)C)CC2)C3)cc1C` [Compound 543, 2-[2-(4-isopropylpiperazin-1-yl)-2-oxoethyl]-6-(4-methoxy-3-methylphenyl)-1,2,3,4-tetrahydroisoquinoline], the inhibition at 4 µM was ≥ 90%.

Take `O=C(CN1CCc2cc(-c3cc(F)ccc3F)ccc2C1)N1CCN(C2CCC2)CC1` [Compound 582, 2-[2-(4-cyclobutylpiperazin-1-yl)-2-oxoethyl]-6-(2,5-difluorophenyl)-1,2,3,4-tetrahydroisoquinoline]: the inhibition at 4 µM is ≥ 90%.

For `CC(C)N1CCN(C(=O)CN2CCc3cc(-c4cccc(F)c4F)ccc3C2)CC1` [Compound 602, 6-(2,3-difluorophenyl)-2-[2-(4-isopropylpiperazin-1-yl)-2-oxoethyl]-1,2,3,4-tetrahydroisoquinoline], the inhibition at 4 µM is ≥ 90%.

As for `CCOc1ccc(-c2ccc3c(c2)CCN(CC(=O)N2CCN(C4CCCCC4)CC2)C3)cc1` [Compound 530, 2-[2-(4-cyclohexylpiperazin-1-yl)-2-oxoethyl]-6-(4-ethoxyphenyl)-1,2,3,4-tetrahydroisoquinoline], the inhibition at 4 µM is ≥ 90%.

Turning to `O=C(CN1CCc2cc(-c3cncnc3)ccc2C1)N1C[C@@H]2C[C@H]1CN2C1CCCC1` (stereo in doubt) [Compound 612, 2-{2-[(1S,4S)-5-cyclopentyl-2,5-diazabicyclo[2.2.1]hept-2-yl]-2-oxoethyl}-6-pyrimidin-5-yl-1,2,3,4-tetrahydroisoquinoline], the inhibition at 4 µM was ≥ 90%.

For the compound `CCCOCCNc1ccc2c(n1)CCN(CC(=O)N1CCN(C3CCC3)CC1)C2` [Compound 669, 6-[2-(4-cyclobutylpiperazin-1-yl)-2-oxoethyl]-N-(2-propoxyethyl)-5,6,7,8-tetrahydro-1,6-naphthyridin-2-amine], the inhibition at 4 µM is ≥ 90%.

`O=C(CN1CCc2cc(-c3ccc(F)c(F)c3)ccc2C1)N1CCN(C2CCCC2)CC1` [Compound 590, 2-[2-(4-cyclopentylpiperazin-1-yl)-2-oxoethyl]-6-(3,4-difluorophenyl)-1,2,3,4-tetrahydroisoquinoline]: the inhibition at 4 µM was ≥ 90%.

With `COc1ccccc1-c1ccc2c(c1)CCN(CC(=O)N1CCN(C3CCCC3)CC1)C2` [Compound 552, 2-[2-(4-cyclopentylpiperazin-1-yl)-2-oxoethyl]-6-(2-methoxyphenyl)-1,2,3,4-tetrahydroisoquinoline], the inhibition at 4 µM was ≥ 90%.

Turning to `COc1ccc(C)cc1-c1ccc2c(c1)CCN(CC(=O)N1CCN(C3CCCCC3)CC1)C2` [Compound 574, 2-[2-(4-cyclohexylpiperazin-1-yl)-2-oxoethyl]-6-(2-methoxy-5-methylphenyl)-1,2,3,4-tetrahydroisoquinoline], the inhibition at 4 µM is ≥ 90%.

In another test the target is T1, chimeric human H3 receptor. The test is described as follows: Chimeric human H3 receptor GTP binding assay (agonist-stimulated GTP-gamma35S binding, Example 7). In kind it is biochemical. The conditions noted are these: Table II "Ki", symbol *; assay of Example 7. In outline:
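Sf9 membranes co-expressing chimeric human H3 receptor and heterotrimeric G-protein, 35 μg/tube, in pH 7.4 Tris buffer with 10 μM GDP. Test compounds (10^−10–10^−6 M) competed against 1 μM histamine, […] GTP-gamma35S, 60 min at room temperature. Filter-bound radioactivity counted; IC50 converted to Ki by Cheng-Prusoff. Agonism/inverse agonism tested without histamine (EC50).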
Consider `COc1ccc(-c2ccc3c(c2)CCN(CC(=O)N2CCN(C4CCCC4)CC2)C3)cc1OC` [Compound 525, 2-[2-(4-cyclopentylpiperazin-1-yl)-2-oxoethyl]-6-(3.4-dimethoxyphenyl)-1,2,3,4-tetrahydroisoquinoline], for which the Ki is < 1000 nM.

For the compound `CC(C)C(C)Nc1ccc2c(n1)CCN(CC(=O)N1CCN(C3CCC3)CC1)C2` (centres unmarked) [Compound 661, 6-[2-(4-cyclobutylpiperazin-1-yl)-2-oxoethyl]-N-(1,2-dimethylpropyl)-5,6,7,8-tetrahydro-1,6-naphthyridin-2-amine], the Ki is < 1000 nM.

In the case of `CCOc1cccc(-c2ccc3c(c2)CCN(CC(=O)N2CCN(C4CCC4)CC2)C3)c1` [Compound 482, 2-[2-(4-cyclobutylpiperazin-1-yl)-2-oxoethyl]-6-(3-ethoxyphenyl)-1,2,3,4-tetrahydroisoquinoline], the Ki is < 1000 nM.

Turning to `CCOCCNc1ccc2c(n1)CCN(CC(=O)N1CCN(C3CCC3)CC1)C2` [Compound 667, 6-[2-(4-cyclobutylpiperazin-1-yl)-2-oxoethyl]-N-(2-ethoxyethyl)-5,6,7,8-tetrahydro-1,6-naphthyridin-2-amine], the Ki is < 1000 nM.

Still in this test, the particulars now being: Table II; "*" = Ki in assay of Example 7 less than 1 micromolar.
`COCCN(C)c1ccc2c(n1)CCN(CC(=O)N1CCN3C(C)CCC[C@H]3C1)C2` (stereo in doubt) [Compound 181, N-(2-methoxyethyl)-N-methyl-6-[2-(6-methyloctahydro-2H-pyrido[1,2-a]pyrazin-2-yl)-2-oxoethyl]-5,6,7,8-tetrahydro-1,6-naphthyridin-2-amine]: the Ki was < 1000 nM.

Regarding `O=C(CN1CCc2cc(-c3cncnc3)ccc2C1)N1CCN2CCCCC2C1` (centres unmarked) [Compound 151, 2-[(6-pyrimidin-5-yl-3,4-dihydroisoquinolin-2(1H)-yl)acetyl]octahydro-2H-pyrido[1,2-a]pyrazine], the Ki is < 1000 nM.

Staying with this test, now noted: assay of Example 7; "*" in Ki of Table II.
Regarding `CCc1cccc(-c2nc3c(s2)CN(CC(=O)N2CCN(C4CCC4)CC2)CC3)c1` [Compound 313, 5-[2-(4-cyclobutylpiperazin-1-yl)-2-oxoethyl]-2-(3-ethylphenyl)-4,5,6,7-tetrahydro[1,3]thiazolo [5,4-c]pyridine], the Ki is < 1000 nM.

As to `O=C(CN1CCc2nc(-c3cccc(Cl)c3)sc2C1)N1CCN(C2CCC2)CC1` [Compound 295, 2-(3-chlorophenyl)-5-[2-(4-cyclobutylpiperazin-1-yl)-2-oxoethyl]-4,5,6,7-tetrahydro[1,3]thiazolo [5,4-c]pyridine], the Ki is < 1000 nM.

Consider `O=C(CN1CCc2c(cnn2-c2ccc(O)nn2)C1)N1CCN(C2CCC2)CC1` [Compound 291, 6-{5-[2-(4-cyclobutylpiperazin-1-yl)-2-oxoethyl]-4,5,6,7-tetrahydro-1H-pyrazolo[4,3-c]pyridin-1-yl}pyridazin-3-ol], for which the Ki was < 1000 nM.
